The text below walks through data of publication PMC5839409, “Targeting intracellular B2 receptors using novel cell-penetrating antagonists to arrest growth and induce apoptosis in human triple-negative breast cancer” (Oncotarget, 2018).

Experiment [1] deals with MDA-MB-231 cells. In words: Annexin V/PI apoptosis and beta-galactosidase senescence assays. It counts as cell-based, human. The conditions noted are these: Annexin V and active caspase-3 positivity 24h; β-galactosidase 72h. The method, then: The effect of B2RAs on cellular senescence was assessed using the Senescence β-Galactosidase Staining Kit (Cell Signaling). MDA-MB-231 cells were plated at 500 000 cells/well in 6-well plates, and serum-starved right before the beginning of treatments. Cells were treated with and without the B2RAs at the indicated concentrations for 72 h. At the end of treatment, surviving cells were fixed with 2% formaldehyde, 0.2% glutaraldehyde for 15 min at room temperature. Fixed cells were then washed and stained with fresh senescence-associated β-galactosidase stain solution (sodium phosphate buffer, pH 6.0, containing 1mg of X-gal (5-bromo-4-chloro-3-indolyl-β-d-galactopyranoside)/ml 40 mM citric acid, 5 mM potassium ferrocyanide, 5 mM potassium ferricyanide, 150 mM NaCl, 2 mM MgCl2) at 37°C. Staining was detected by light microscopy. As a positive control for senescence, we serum starved porcine cerebral microvascular endothelial cells (pCMVEC) (kindly provided by S Chemtob) for 48 h.
MDA-MB-231 and COS-1 cells were plated at 500,000/well in 6-well plates containing medium (10% FBS/DMEM), and allowed to adhere for about 18 h. On the next day, cells were serum-starved and then treated with and without the B2RAs at the indicated concentrations for 24 h. To assess induction of apoptosis due to treatment, we used the Annexin-V-FLUOS Staining kit (Roche) according to manufacturer’s specifications. Briefly, at the end of treatments, cells were harvested, rinsed and incubated in 100 µl of Annexin-V-FLUOS labeling solution (containing 2 µl of Annexin-V-Fluos reagent and 1 µl of PI (15 µg/ml)) for 15 min at room temperature. Cells were analyzed on a FACSCanto II flow cytometer (BD Biosciences). Early stage apoptosis was measured using annexin V-Fluos (RocheMolecular Biochemicals) in conjunction with PI (Sigma) to distinguish among early apoptosis and late apoptosis/necrosis. Bar diagram showing the distribution of early, late/necrotic cell populations.

Another experiment addresses T1, human B2R (Homo sapiens, UniProt P30411).
T1 construct: expressed in transfected cells; host or cells: HEK-293T
T1 sequence (P30411 1-391): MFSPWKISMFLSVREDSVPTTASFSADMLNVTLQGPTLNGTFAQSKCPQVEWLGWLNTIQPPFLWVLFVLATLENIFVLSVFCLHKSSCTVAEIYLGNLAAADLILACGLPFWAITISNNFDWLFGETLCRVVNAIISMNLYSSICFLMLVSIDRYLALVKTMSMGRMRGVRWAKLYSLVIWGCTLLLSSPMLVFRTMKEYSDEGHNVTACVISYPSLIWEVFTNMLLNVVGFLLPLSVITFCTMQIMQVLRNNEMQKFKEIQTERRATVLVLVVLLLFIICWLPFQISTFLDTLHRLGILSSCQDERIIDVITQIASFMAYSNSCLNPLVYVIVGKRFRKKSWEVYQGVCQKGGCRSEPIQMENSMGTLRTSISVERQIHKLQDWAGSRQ
Particulars: living adherent HEK-293T cells transiently transfected with hB2R; means ± s.e.m.; ref [34]; read-out: Binding hB2R-HEK293T IC50; cited from earlier work.

For experiment [2], the system named is MDA-MB-231 cells. Briefly: MTT cytotoxicity (cell viability) assay. It counts as cell-based, human. Particulars: MTT assay after 72h drug exposure; means ± s.e.m., n = 6 to 8; read-out: IC50 values (cytocidal activity). As for the experimental part:
Cell proliferation assay on MDA-MB-231 cells was determined with colorimetric MTT as we described. Briefly, cells were seeded in a 96 wells plate at 2,000 cells/well in DMEM media supplemented with 10% FBS for 24h at 37°C. Cells were then incubated with and without the B2RAs at the indicated concentrations for the time shown. At the end of treatment period, MTT (0.25 mg/ml) was added to the cells and incubated for 1h30 at 37°C. Thereafter, the cell medium was removed, the formazan product solubilized in acidified isopropanol (100 µl of 1N HCl/anhydrous isopropanol 1:25) and the absorbance determined at 570 nm with an ELISA microplate reader (Spectra Max Plus, Molecular Devices, Sunnyvale, CA). For assessing the cytotoxicity of B2RAs and chemotherapeutic agents (carmustine, doxorubicin, carboplatin, temozolomide and paclitaxel), cells were grown to confluency in multi-well plates and exposed to starving media (DMEM without FBS) for 24h before beginning of the antagonist treatment. Cells were then incubated with MTT and treated exactly as described above. Cell viability was expressed as a percentage of optical density (OD) values obtained upon treatment relative to control.

In experiment [3] the test system is MDA-MB-231 cells. Briefly: PI staining cell cycle analysis by flow cytometry. It counts as cell-based, human. The conditions noted are these: 24 h treatment; HOE 140 up to 100 μM. As for the experimental part:
MDA-MB-231 were plated at 500,000/plate in 10 cm plates containing medium (10% FBS/DMEM), and allowed to adhere for about 18 h. Thereafter, cells were serum-starved and treated with and without the B2RAs at the indicated concentrations for 24 h. At the end of treatments, cells were harvested, rinsed and fixed with ice cold ethanol 95%, for 2 h at 4°C. Fixed cells were rehydrated with 800 µl PBS for 30 min, and then washed again with PBS to remove all traces of ethanol. Cells were treated with RNase for 30 min prior to staining. PI was added to cell suspension at a concentration of 15 µg/ml and incubated overnight at 4°C. PI staining was assessed by flow cytometry using a FACSCanto II flow cytometer (BD Biosciences).

Experiment [4] relates to MDA-MB-231 cells. In words: Western blot of cell cycle, apoptosis and p38 proteins. It counts as cell-based, human. As for the experimental part:
For western blot analysis, appropriate amount of cell lysates or membrane and nuclear fractions (25–50 µg protein) were denatured, resolved on 9–12% SDS–PAGE and electrotransferred onto PVDF membranes. Blots were blocked using 5% nonfat dry milk and probed using appropriate primary antibodies in blocking buffer overnight at 4°C.

Setting [5] is: 24h treatment, whole-cell lysates.

Molecules are shown by their SMILES.

Turning to `CC(=O)Nc1ccc(/C=C/C(=O)NCC(=O)N(C)c2ccc(Cl)c(COc3cccc4ccc(C)nc34)c2Cl)cn1` [FR 173657], in the experiment on MDA-MB-231 cells [1], the “induction of apoptosis / senescence” value is recorded as “underwent apoptosis, but not senescence”. Further, the IC50 on human B2R is 0.037 ± 0.0016 µM. Also, the IC50 in the experiment with MDA-MB-231 cells [2] amounted to 20 ± 1 µM. In addition, the cell cycle distribution entry with MDA-MB-231 cells [3] is recorded as “tend to induce G0/G1 cell cycle arrest”. In addition, in the experiment on MDA-MB-231 cells [4] (setting [5]), the “expression of BAD and p27Kip1” value is reported as “increased expression”; the “levels of MAPK and cyclin A” value is “decreased the levels of MAPK and cyclin A”; the “levels of anti-apoptotic protein XIAP” value is “appeared to reduce the levels”. Besides, the “phosphorylation of p38” value in the experiment on MDA-MB-231 cells [4] (over time) is on record as “significantly increased the phosphorylation”.
